Experimental data reported in US20200157638A1, “BIOMARKERS AND PATIENT SELECTION STRATEGIES” (SIERRA ONCOLOGY, INC., priority 2017, published 2020).

Columns and labels:
OVCAR-3 xenograft [1] = test: OVCAR-3 xenograft model of HGSOC, SRA737 monotherapy (Example 2); assay type: in vivo; conditions: 100 mg/kg, 3 cycles, 5 days on and 2 days off; FIG. 6B
Description: The OVCAR-3 tumor cell line was derived from a platinum insensitive patient and harbors an amplification of CCNE1 (encoding cyclin E) and mutation in TP53 (encoding p53), two genomic alterations described herein to contribute to Chk1 inhibitor sensitivity.

DU-145 = test: In vitro growth inhibition of cancer cell lines by SRA737; assay type: cell-based; conditions: DU-145 metastatic prostate cancer cell line; TP53 and RB1 mutations, KRAS amplification; FIG. 4
Description: (§1) In cancer cells, replication stress induced by oncogenes (e.g., MYC and RAS oncogenes) and/or loss of function in tumor suppressors (e.g., TP53) results in persistent DNA damage and genomic instability, a trigger of the DDR network. […] SK-BR-3 is a breast cancer cell line harboring a deleterious mutation is TP53 and amplification in c-MYC. HT-29 is a colorectal cancer (CRC) cell line harboring a deleterious mutation in the tumor suppressor gene, adenomatous polyposis coli (APC), an amplification in c-MYC, and an activation mutation in the oncogenes, BRAF and PIK3CA. DU-145 is metastatic prostate cancer cell line harboring a deleterious mutation in the tumor suppressors TP53 and RB1, an amplification in KRAS, and alterations of the DNA damage repair genes TP53B1, MLH1 and MSH3. A673 is a rhabdomyosarcoma cell line harboring genetic alterations in the tumor suppressor genes, CDKN2A and CDKN2B and genetic alterations in the DNA damage repair genes BRCA1, Rad50 and Rad51D. OVCAR-3 is an ovarian cancer cell line harboring a deleterious mutations in the tumor suppressors TP53 and RB1 and an amplification of CCNE1. […] The results of these in vitro experiments confirm that cancer cells with genetic alterations in tumor suppressor genes, oncogenes, and/or DNA damage repair genes are sensitive to inhibition of Chk1.

SK-BR-3 = test: as above; assay type: cell-based; conditions: SK-BR-3 breast cancer cell line; TP53 mutation, c-MYC amplification; FIG. 4
Description: as §1

OVCAR-5 = test: as above; assay type: cell-based; conditions: OVCAR-5 ovarian cancer cell line; KRAS activation, CCNE1 overexpression; FIG. 5
Description: as §1

OVCAR-3 = test: as above; assay type: cell-based; conditions: OVCAR-3 ovarian cancer cell line; TP53 and RB1 mutations, CCNE1 amplification; FIG. 5
Description: as §1

A673 = test: as above; assay type: cell-based; conditions: A673 rhabdomyosarcoma cell line; CDKN2A/CDKN2B and BRCA1, Rad50, Rad51D alterations; FIG. 4
Description: as §1

HT-29 = test: as above; assay type: cell-based; conditions: HT-29 colorectal cancer cell line; APC mutation, c-MYC amplification, BRAF and PIK3CA activation; FIG. 4
Description: as §1

OVCAR-3 xenograft [2] = test: OVCAR-3 xenograft model, SRA737 versus Olaparib (Example 3); assay type: in vivo, mouse; conditions: 100 mg/kg

N#Cc1cnc(Nc2cc(NCC3CNCCO3)c(C(F)(F)F)cn2)cn1 (stereo not drawn) [SRA737, 5-[[4-[[morpholin-2-yl]methylamino]-5-(trifluoromethyl)-2-pyridyl]amino]pyrazine-2-carbonitrile]
tolerability (body weight loss) (OVCAR-3 xenograft [1]): well tolerated as demonstrated by minimal body weight loss
sensitivity to Chk1 inhibition (growth inhibition) (DU-145): demonstrated sensitivity to Chk1 inhibition
sensitivity to Chk1 inhibition (growth inhibition) (SK-BR-3): demonstrated sensitivity to Chk1 inhibition
sensitivity to Chk1 inhibition (growth inhibition) (OVCAR-5): demonstrated sensitivity to Chk1 inhibition
sensitivity to Chk1 inhibition (growth inhibition) (OVCAR-3): demonstrated sensitivity to Chk1 inhibition
sensitivity to Chk1 inhibition (growth inhibition) (A673): demonstrated sensitivity to Chk1 inhibition
sensitivity to Chk1 inhibition (growth inhibition) (HT-29): demonstrated sensitivity to Chk1 inhibition
tumor growth as compared to Olaparib (OVCAR-3 xenograft [2]; FIG. 7A): significantly reduced tumor growth
body weight (OVCAR-3 xenograft [2]; FIG. 7B): not significantly altered
